Key:
Format in all cases: cell-based, human
PUMA mRNA [1] = assay: drug-induced PUMA mRNA expression in whole blood of leukemia and lymphoma patients; conditions: 2 hours at 37° C.; for PUMA response: NHL patient, drug concentrations (FIG. 8C)
p21 mRNA [2] = assay: drug-induced p21 mRNA expression in whole blood of leukemia and lymphoma patients
BAX mRNA = assay: drug-induced BAX mRNA expression in whole blood of leukemia and lymphoma patients; conditions: drug concentrations (FIG. 3)
Procedure: The mRNA and cDNA were prepared from whole blood. In brief, home-made 96-well filterplates were placed over collection plates, and 150 μl 5 mM Tris, pH 7.4, was applied. Following centrifugation at 120×g for 1 min at 4° C., 50 μl of blood samples were applied to each well and immediately centrifuged at 120×g for 2 min at 4° C., followed by washing of each well with 300 μl PBS once with centrifugation at 2000×g for 5 min at 4° C. Then, 60 μl stock lysis buffer, containing for example 0.5% N-Lauroylsarcosine, 4×SSC, 10 mM Tris HCl, pH 7.4, 1 mM EDTA, 0.1% IGEPAL CA-630, and 1.791 M guanidine thiocyanate, supplemented with 1% 2-mercaptoethanol (Bio Rad, Hercules, Calif., USA), 0.5 mg/ml proteinase K (Pierce, Rockford, Ill., USA), 0.1 mg/ml salmon sperm DNA (5 Prime Eppendorf/Brinkmann, Westbury, N.Y., USA), 0.1 mg/ml E. coli tRNA (Sigma), a cocktail of 10 mM each of the specific reverse primers shown in Table 1, and standard RNA34 oligonucleotides, were applied to the filterplates, followed by incubation at 37° C. for 10 min. The filterplates were then placed over oligo(dT)-immobilized microplates (GenePlate, RNAture), and centrifuged at 2000×g for 5 min at 4° C. Following overnight storage at 4° C., the microplates were washed with 100 μl plain lysis buffer 3 times, followed by 150 μl of wash buffer (0.5 M NaCl, 10 mM Tris, pH 7.4, 1 mM EDTA) 3 times at 4° C. The cDNA was directly synthesized in each well by adding 30 μl buffer containing 1× RT-butter, 1.25 mM each of dNTP, 4 units rRNasin, and 80 units of MMLV reverse transcriptase (Promega) (without primers), and incubation at 37° C. for 2 hours. The specific primer-primed cDNA existed in solution, and oligo(dT)-primed cDNA stayed immobilized in the microplate. For TaqMan PCR (FIGS. 1, 3, 4), the resultant 4 μl cDNA solution was directly transferred to 384-well PCR plates, to which 5 μl of TaqMan universal master mix (ABI) and 1 μl oligonucleotide cocktail (15 μM each of forward and reverse primer, and 3-6 μM TaqMan probe) were applied, and PCR was conducted in PRISM 7900HT (ABI), with one cycle of 95° C. for 10 min followed by 45 cycles of 95° C. for 30 sec, 55° C. for 30 sec, and 60° C. for 1 min. […] The Ct was determined by analytical software (SDS, ABI).

PUMA mRNA [3] = assay: drug-induced PUMA mRNA expression in whole blood of healthy adults; conditions: 10 or 100 μM taxol, 2 hours at 37° C., all individuals (FIG. 13)
Procedure: (§1) In 8-well strip microtubes, 1.4 μl of 50× concentrations of drugs or controls (phosphate buffered saline (PBS) or DMSO) were added, and stored at −20° C. until use. […] Seventy μl of fresh heparinized whole blood was added into each well in triplicate, and incubated at 37° C. for 2-8 hours with the cap closed. For radiation treatment, blood was stimulated at designated doses using cesium-137. After each treatment, 50 μl of whole blood was transferred to filterplates as described below.
(§2) The mRNA and cDNA were prepared from whole blood. In brief, home-made 96-well filterplates were placed over collection plates, and 150 μl 5 mM Tris, pH 7.4, was applied. Following centrifugation at 120×g for 1 min at 4° C., 50 μl of blood samples were applied to each well and immediately centrifuged at 120×g for 2 min at 4° C., followed by washing of each well with 300 μl PBS once with centrifugation at 2000×g for 5 min at 4° C. Then, 60 μl stock lysis buffer, containing for example 0.5% N-Lauroylsarcosine, 4×SSC, 10 mM Tris HCl, pH 7.4, 1 mM EDTA, 0.1% IGEPAL CA-630, and 1.791 M guanidine thiocyanate, supplemented with 1% 2-mercaptoethanol (Bio Rad, Hercules, Calif., USA), 0.5 mg/ml proteinase K (Pierce, Rockford, Ill., USA), 0.1 mg/ml salmon sperm DNA (5 Prime Eppendorf/Brinkmann, Westbury, N.Y., USA), 0.1 mg/ml E. coli tRNA (Sigma), a cocktail of 10 mM each of the specific reverse primers shown in Table 1, and standard RNA34 oligonucleotides, were applied to the filterplates, followed by incubation at 37° C. for 10 min. The filterplates were then placed over oligo(dT)-immobilized microplates (GenePlate, RNAture), and centrifuged at 2000×g for 5 min at 4° C. Following overnight storage at 4° C., the microplates were washed with 100 μl plain lysis buffer 3 times, followed by 150 μl of wash buffer (0.5 M NaCl, 10 mM Tris, pH 7.4, 1 mM EDTA) 3 times at 4° C. The cDNA was directly synthesized in each well by adding 30 μl buffer containing 1×RT-buffer, 1.25 mM each of dNTP, 4 units rRNasin, and 80 units of MMLV reverse transcriptase (Promega) (without primers), and incubation at 37° C. for 2 hours. The specific primer-primed cDNA existed in solution, and oligo(dT)-primed cDNA stayed immobilized in the microplate. For TaqMan PCR (FIGS. 1, 3, 4), the resultant 4 μl cDNA solution was directly transferred to 384-well PCR plates, to which 5 μl of TaqMan universal master mix (ABI) and 1 μl oligonucleotide cocktail (15 μM each of forward and reverse primer, and 3-6 μM TaqMan probe) were applied, and PCR was conducted in PRISM 7900HT (ABI), with one cycle of 95° C. for 10 min followed by 45 cycles of 95° C. for 30 sec, 55° C. for 30 sec, and 60° C. for 1 min. For SYBR Green PCR (see FIG. 6), cDNA was diluted 3-4 fold in water, and 4 μl cDNA solution was directly transferred to 384-well PCR plates, to which 5 μl of a master mix (BioRad, Hercules, Calif.) and 1 μl of oligonucleotide cocktail (15 μM each of forward and reverse primer) were applied, and PCR was conducted in PRISM 7900HT (ABI), with one cycle of 95° C. for 10 min followed by 45 cycles of 95° C. for 30 sec and 60° C. for 1 min. Each gene was amplified in separate wells. The Ct was determined by analytical software (SDS, ABI). Although 1×RT buffer was used as a negative control, none of the primer pairs produced non-specific primer-dimers under these experimental conditions. For PUMA in FIG. 8, immobilized cDNA on the oligo(dT)-immobilized microplates was directly amplified in an iCycler (BioRad).
Quantitation of various mRNAs was conducted using the following method. Triplicate aliquots of 50 μl each of heparinized whole blood was applied to 96-well filterplates to trap leukocytes. The filterplates were placed over collection plates, and 150 μl 5 mM Tris, pH 7.4, was applied. […]

p21 mRNA [4] = assay: drug-induced p21 mRNA expression in whole blood of healthy adults; conditions: 10 or 100 μM taxol, 2 hours at 37° C., all individuals (FIG. 13)
Excerpt: Blood was obtained from healthy adults and from two leukemic non-Hodgkin's malignant lymphoma patients. U937, KG-1, and Jurkat cells were obtained from American Type Culture Collection (ATCC, Manassas, Va.), and maintained in RPMI 1640 supplemented with 10% fetal calf serum. Of these, U937 cells are a human histiocytic lymphoma cell line, KG-1 cells are a human bone marrow myelogenous leukemia cell line, and Jurkat cells are a human T-cell lymphoblast-like, leukemia derived cell line. […] For human experiments, blood aliquots were stimulated with various anti-cancer drugs at 37° C. for 2 hours, then both p21 and BAX mRNA were measured. The anti-cancer drugs used in this study were clinical drugs, and the concentration of each drug was adjusted to typical blood levels 3-6 hours after intravenous administration.
as §2, with “1× RT-butter,” for “1×RT-buffer,”, “ABI).” for “ABI). Although 1×RT buffer was used as a negative control, none of the primer pairs produced non-specific primer-dimers under these experimental conditions. For PUMA in FIG. 8, immobilized cDNA on the oligo(dT)-immobilized microplates was directly amplified in an iCycler (BioRad).”
as §1, with “cesium-137.” for “cesium-137. After each treatment, 50 μl of whole blood was transferred to filterplates as described below.”

[5] = CLL patient, drug concentrations of b94 (FIG. 8A)
[6] = AML patient, drug concentrations of b94 (FIG. 8B)
[7] = leukemic lymphoma patient 1, 2 hours at 37° C., drug concentrations (FIG. 3)
[8] = leukemic lymphoma patient 1, 2 hours at 37° C.
[9] = leukemic lymphoma patient 2, 2 hours at 37° C., drug concentrations (FIG. 3)

Compound: COc1cccc2c1C(=O)c1c(O)c3c(c(O)c1C2=O)C[C@@](O)(C(C)=O)C[C@@H]3O[C@H]1C[C@H](N)[C@H](O)[C@H](C)O1 [DNR, daunorubicin]
- PUMA induction (PUMA mRNA [1]; [5]): induced

Compound: CN(Cc1cnc2nc(N)nc(N)c2n1)c1ccc(C(=O)N[C@@H](CCC(=O)O)C(=O)O)cc1 [MTX, methotrexate]
- PUMA induction (PUMA mRNA [1]; [6]): huge induction
- PUMA response (PUMA mRNA [1]): strong PUMA response

Compound: [NH2][Pt]1([NH2])[O]C(=O)C2(CCC2)C(=O)[O]1 [Paraplatin, carboplatin]
- p21 mRNA induction (p21 mRNA [2]; [7]): significant induction
- BAX mRNA induction (BAX mRNA; [8]): significant induction

Compound: Cc1c(N)nc([C@H](CC(N)=O)NC[C@H](N)C(N)=O)nc1C(=O)N[C@H](C(=O)N[C@H](C)[C@@H](O)[C@H](C)C(=O)N[C@H](C(=O)NCCc1nc(-c2nc(C(=O)NCCCN[C@@H](C)c3ccccc3)cs2)cs1)[C@@H](C)O)[C@@H](O[C@@H]1O[C@@H](CO)[C@@H](O)[C@H](O)[C@@H]1O[C@H]1O[C@H](CO)[C@@H](O)[C@H](OC(N)=O)[C@@H]1O)c1c[nH]cn1 [PEP, peplomycin]
- PUMA induction (PUMA mRNA [1]; [6]): huge induction

Compound: Nc1nc(F)nc2c1ncn2[C@@H]1O[C@H](CO)[C@@H](O)[C@@H]1O [Fludara, fludarabine]
- p21 mRNA induction (p21 mRNA [2]; [9]): significant p21 mRNA induction
- PUMA induction (PUMA mRNA [1]; [6]): huge induction

Compound: O=P1(N(CCCl)CCCl)NCCCO1 (stereo not shown) [Endoxan, cyclophosphamide]
- p21 mRNA induction (p21 mRNA [2]): induced

Compound: CC(=O)O[C@H]1C(=O)[C@@]2(C)[C@H]([C@H](OC(=O)c3ccccc3)[C@]3(O)C[C@H](OC(=O)[C@H](O)[C@@H](NC(=O)c4ccccc4)c4ccccc4)C(C)=C1C3(C)C)[C@]1(OC(C)=O)CO[C@@H]1C[C@@H]2O [taxol]
- PUMA mRNA induction (PUMA mRNA [3]): failed to induce
- p21 mRNA induction (p21 mRNA [4]): failed to induce

Compound: COc1cccc2c1C(=O)c1c(O)c3c(c(O)c1C2=O)C[C@@](O)(C(=O)CO)C[C@@H]3O[C@H]1C[C@H](N)[C@H](O)[C@H](C)O1 [Adriacin, doxorubicin]
- p21 mRNA induction (p21 mRNA [2]; [9]): significant p21 mRNA induction

Compound: COc1cccc2c1C(=O)c1c(O)c3c(c(O)c1C2=O)C[C@@](O)(C(=O)CO)C[C@@H]3O[C@H]1C[C@H](N)[C@H](O[C@@H]2CCCCO2)[C@H](C)O1 [THP, pirarubicin]
- p21 mRNA induction (p21 mRNA [2]; [7]): significant induction
- BAX mRNA induction (BAX mRNA; [8]): significant induction
- PUMA induction (PUMA mRNA [1]; [6]): huge induction
- PUMA response (PUMA mRNA [1]): strong PUMA response

Compound: [NH2][Pt]([NH2])([Cl])[Cl] [CDDP, cisplatin]
- PUMA induction (PUMA mRNA [1]; [6]): huge induction

Compound: CC[C@]1(O)C[C@@H]2CN(CCc3c([nH]c4ccccc34)[C@@](C(=O)OC)(c3cc4c(cc3OC)N(C)[C@H]3[C@@](O)(C(=O)OC)[C@H](OC(C)=O)[C@]5(CC)C=CCN6CC[C@]43[C@@H]65)C2)C1 [VLB, vinblastine]
- p21 induction (p21 mRNA [2]; AML patient, 2 hours at 37° C., drug concentrations of b94 (FIG. 8B)): significant p21 induction

Compound: O=C1c2c(O)ccc(O)c2C(=O)c2c(NCCNCCO)ccc(NCCNCCO)c21 [MIT, mitoxantrone]
- BAX mRNA induction (BAX mRNA; leukemic lymphoma patient 2, 2 hours at 37° C.): BAX mRNA induction
- PUMA induction (PUMA mRNA [1]; [6]): huge induction
- PUMA induction (PUMA mRNA [1]; [5]): induced
- PUMA response (PUMA mRNA [1]): strong PUMA response
